Experimental data as given in patent US20230332232A1, “COMPOSITIONS AND METHODS FOR DIAGNOSING AND TREATING A DYSTONIA” (Duke University, priority 2020, published 2023).

Tested on: DYT1 knockin (Tor1a^delGAG/+) murine embryonic fibroblasts (MEFs)
Assay: Untargeted LC/MS/MS proteomics of EVs from DYT1 MEFs exposed 24 hours to drug, compared with untreated DYT1 (Het) MEFs
Assay type: cell-based, mouse
Description: Methods for isolation and purification of exosomes and extracellular vesicles (EV) were extensively reviewed. Experiments were performed to arrive at a robust and reproducible protocol. The protocol used herein is that set forth in Théry et al, 2006, which is incorporated by reference for it teaching of this protocol. This protocol involves depleting serum-derived EVs from cell culture media by overnight ultracentrifugation and exchanging media for 1% FBS EV-depleted media. Media is then collected from cells following a 24-hour conditioning period and EVs are isolated by 18-hour ultracentrifugation at 100,000 g (FIG. 1A).
EVs were isolated from media of cultured murine embryonic fibroblasts (MEFs) prepared in-house according to protocols described by Xu 2005 from DYT1 knockin mice (Tor1a^delGAG/+) (Goodchild R E, et al. (2005) Neuron. 48:923-932) and littermate wild-type (WT) controls. The cultured MEFs from the DYT1 mice were exposed for 24 hours to Ritonavir (RTV) while the MEFs from WT mice were exposed to vehicle, ISRIB, or Salubrinal (SAL). The EVs isolated from these WT cells and DYT1 were characterized by untargeted proteomics and RNA-seq to identify differentially expressed proteins and RNAs as candidate biomarkers. Experimenter and Proteomics core staff were blinded to genotype of cell cultures throughout preparation and analysis phases.
Samples were first normalized to 20 μg and spiked with undigested casein at a total of 40 fmol/μg, 80 fmol/μg, or 160 fmol/μg, then reduced with 10 mM dithiolthreitol for 30 minute at 80° C. and alkylated with 20 mM iodoacetamide for 30 minutes at room temperature. Next, the samples were supplemented with a final concentration of 1.2% phosphoric acid and 741 μL of S-Trap (Protifi) binding buffer (90% MeOH/100 mM […]). Proteins were trapped on the S-Trap, digested using 20 ng/μL sequencing grade trypsin (Promega) for 1 hour at 47° C., and eluted using 50 mM TEAB, followed by 0.2% FA, and lastly using 50% CAN/0.2% FA. All samples were then lyophilized to dryness and resuspended in 40 μL 1% TFA/2% acetonitrile containing 12.5 fmol/μL yeast alcohol dehydrogenase (ADH_YEAST). A QC Pool was created from 3 uL of each sample. All QC Pools were run periodically throughout the acquisition period.
Quantitative LC/MS/MS was performed on 2 μL of each sample, using a nanoAcquity UPLC system (Waters Corp) coupled to a Thermo Orbitrap Fusion Lumos high resolution accurate mass tandem mass spectrometer (Thermo) via a nanoelectrospray ionization source. Briefly, the sample was first trapped on a Symmetry C18 20 mm×180 μm trapping column (5 μL/min at 99.9/0.1 v/v water/acetonitrile), after which the analytical separation was performed using a 1.8 μm Acquity HSS T3 C18 75 μm×250 mm column (Waters Corp.) with a 90 minute linear gradient of 5% to 30% acetonitrile with 0.1% formic acid at a flow rate of 400 nanoliters/minute (nL/min) with a column temperature of 55° C. Data collection on the Fusion Lumos mass spectrometer was performed in a data-dependent acquisition (DDA) mode of acquisition with a r=120,000 (@ m/z 200) full MS scan from m/z 375-1500 with a target AGC value of 2e5 ions. MS/MS scans were acquired at Rapid scan rate (Ion Trap) with an AGC target of 5e3 ions and a max injection time of 100 ms. The total cycle time for MS and MS/MS scans was 2 seconds. A 20 second dynamic exclusion was employed to increase depth of coverage. The total analysis cycle time for each sample injection was approximately 2 hours.

Measured: SAL Direction Opposite ISRIB?

O=C(/C=C/c1ccccc1)NC(NC(=S)Nc1cccc2cccnc12)C(Cl)(Cl)Cl (stereo not shown) [SAL, Salubrinal]
yes: DYT1 (Het) MEF EVs, protein: DNA replication licensing factor MCM6 | DYT1 (Het) MEF EVs, protein: DNA-directed RNA polymerases I and III subunit RPAC1 | DYT1 (Het) MEF EVs, protein: Protein arginine N-methyltransferase 3 | DYT1 (Het) MEF EVs, protein: Scavenger receptor class B member 1 | DYT1 (Het) MEF EVs, protein: Serine threonine-protein phosphatase 2A 55 kDa regulatory subunit B alpha isoform | DYT1 (Het) MEF EVs, protein: Small nuclear ribonucleoprotein-associated protein B | EV protein: 26S proteasome non-ATPase regulatory subunit 8 | EV protein: 60S [?] subunit biogenesis protein [?] homolog | EV protein: 60S ribosomal protein [?] | EV protein: 116 kDa [?] small nuclear ribonucleoprotein component | EV protein: AP-3 complex subunit [?] | EV protein: ATP-dependent RNA helicase [?] | EV protein: Acyl-protein thioesterase 2 | EV protein: Anaphase-promoting complex subunit 2 | EV protein: Anaphase-promoting complex subunit 5 | EV protein: Apolipoprotein M | EV protein: Calnexin | EV protein: Cell [?] cycle protein [?] homolog | EV protein: Coiled-coil domain-containing protein 22 | EV protein: Cullin-2 | EV protein: Cullin-5 | EV protein: Cullin-7 | EV protein: DNA [?] (r264) | EV protein: DNA ligase 1 | EV protein: DNA replication licensing factor [?] | EV protein: DNA-directed RNA polymerase II subunit RPB1 | EV protein: DNA-directed RNA polymerase II subunit RPB2 | EV protein: DNA-directed RNA polymerase II subunit RPB3 | EV protein: DNA-directed RNA polymerases I, II, and III subunit RPABC3 | EV protein: DNA-directed RNA polymerases I, II, and III subunit [?] | EV protein: Double-strand-break repair protein rad21 homolog | EV protein: Elongin-B | EV protein: Exosome complex exonuclease RRP44 | EV protein: Extended synaptotagmin-1 | EV protein: Gamma-tubulin complex component 2 | EV protein: General vesicular transport factor p115 | EV protein: Glycosylated lysosomal membrane protein | EV protein: Glycylpeptide N-tetradecanoyltransferase 1 | EV protein: Golgi reassembly-stacking protein 2 | EV protein: Histone-arginine methyltransterase CARM1 | EV protein: Importin-7 | EV protein: Leucyl-cystinyl aminopeptidase | EV protein: Mediator [?] RNA polymerase II transcription subunit 23 | EV protein: Metastasis-associated protein [?] (r222) | EV protein: Metastasis-associated protein [?] (r261) | EV protein: Microtubule-associated protein [?] | EV protein: Nuclear [?] complex protein [?] | EV protein: Nuclear cap-binding protein subunit 1 | EV protein: Nuclear receptor-binding protein | EV protein: Phosphoribosyl pyrophosphate synthase-associated protein 1 | EV protein: Pigment epithelium-derived factor | EV protein: Protein O-GlcNAcase | EV protein: Protein [?] 14 homolog | EV protein: Protein [?] (r160) | EV protein: Ran-binding protein 10 | EV protein: Ribosome biogenesis protein BOP1 | EV protein: Ribosome production factor 2 homolog | EV protein: Serine threonine-protein phosphatase 6 catalytic subinit | EV protein: Sorting nexin-1 | EV protein: Trascriptional activator protein [?] -alpha | EV protein: WD repeat-containing protein [?] | EV protein: [?] -1 (r154) | EV protein: [?] -1 (r232) | EV protein: [?] -conjucating enxyme [?] | EV protein: [?] kinase | EV protein: [?] myosin- [?] | EV protein: [?] repeat-containing protein 5A | EV protein: [?] small nuclear ribonucleoprotein 40 kDa protein | EV protein: p21-activated protein kinase-interacting protein 1 | EV protein: transportin-3
